The text below walks through data of patent EP1202992B1, “ASCIDIDEMIN DERIVATIVES AND THEIR THERAPEUTIC APPLICATIONS” (CEPHALON FRANCE, priority 1999, dated 2001).

Read-outs that look alike come from different tables or passages of the source.

For series [1], the system named is 12 lignées tumorales humaines. Briefly: MTT colorimetric cytotoxicity test, all 12 tumour cell lines together. It is filed as cell-based. The conditions noted are these: mean calculated from the cytotoxic activity on the 12 tumour cell lines; read-out: Cl 50 (the source's name). An excerpt: (§1) L'influence des composés de formules I et la sur les cellules néoplasiques a été évaluée à l'aide du test colorimétrique MTT. Le principe du test MTT est basé sur la réduction mitochondriale par les cellules vivantes métaboliquement actives du produit MTT (3-(4,5-diméthylthiazol-2-yl)-2,5 diphényltétrazolium bromide) de couleur jaune en un produit de couleur bleue, le formazan. La quantité de formazan ainsi obtenue est directement proportionnelle à la quantité de cellules vivantes présentes dans le (ou les) puit(s) de culture. Cette quantité de formazan est mesurée par spectrophotométrie.
(§2) Les lignées cellulaires sont maintenues en culture monocouche à 37°C dans des boîtes de culture à bouchon fermé contenant du milieu de base MEM 25 MM HEPES (Minimum Essential Medium). Ce milieu, adapté à la croissance d'une gamme de cellules variées diploïdes ou primaires de mammifères, est ensuite additionné : • d'une quantité de 5% de SVF (Sérum de Veau Foetal) décomplémenté à 56°C pendant 1 heure, • de 0,6 mg/ml de L-glutamine, • de 200 IU/ml de pénicilline, • de […] de streptomycine, • de 0,1 mg/ml de gentamicine.
Les 12 lignées cellulaires cancéreuses humaines utilisées ont été obtenues auprès de l'American Type Culture Collection (ATCC, Rockville, MD, USA). Ces 12 lignées cellulaires sont : • U-373MG (code ATCC : HTB-17) et U-87MG (code ATCC : HTB-14) qui sont deux glioblastomes, • SW1088 (code ATCC : HTB-12) qui est un astrocytome, • A549 (code ATCC : CCL-185) et A-427 (code ATCC : HTB-53) qui sont deux cancers du poumon non-à-petites-cellules, • HCT-15 (code ATCC : CCL-225) et LoVo (code ATCC : CCL-229) qui sont deux cancers colorectaux, • T-47D (code ATCC : HTB-133) et MCF7 (code ATCC : HTB-22) qui sont deux cancers du sein, • J82 (code ATCC : HTB-1) et T24 (code ATCC : HTB-4) qui sont deux cancers de la vessie, • PC-3 (code ATCC : CRL-1435) qui est un cancer de la prostate.
Au plan expérimental : 100 µl d'une suspension cellulaire contenant 20 000 à 50 000 (selon le type cellulaire utilisé) cellules/ml de milieu de culture sont ensemencés en plaques multi-puits de 96 puits à fond plat et sont mis à incuber à 37°C, sous atmosphère comprenant 5% de CO2 et 70% d'humidité. Au bout de 24 heures d'incubation, le milieu de culture est remplacé par 100 µl de milieu frais contenant soit les différents composés à tester à des concentrations variant de 10^-5 à 10^-10 M soit le solvant ayant servi à la mise en solution des produits à tester (condition contrôle). Après 72 heures d'incubation dans les conditions précédentes, le milieu de culture est remplacé par 100 µl d'une solution jaunâtre de MTT dissous à raison de 1 mg/ml dans du RPMI 1640. Les microplaques sont remises à incuber pendant 3 heures à 37°C puis centrifugées pendant 10 minutes à 400 g. La solution jaunâtre de MTT est éliminée et les cristaux de formazan bleu formés au niveau cellulaire sont dissous dans 100 µl de DMSO. Les microplaques sont ensuite mises sous agitation pendant 5 minutes. L'intensité de la coloration bleue résultant donc de la transformation du produit MTT jaune en formazan bleu par les cellules encore vivantes au terme de l'expérience est quantifiée par spectrophotométrie à l'aide d'un appareil de type DYNATECH IMMUNOASSAY SYSTEM aux longueurs d'onde de 570 nm et 630 nm correspondant respectivement aux longueurs d'ondes d'absorbance maximale du formazan et au bruit de fond. Un logiciel intégré au spectrophotomètre calcule les valeurs moyennes de densité optique ainsi que les valeurs de déviation standard (Dév. Std.) et d'erreur standard sur la moyenne (ESM).
L'activité inhibitrice de la croissance cellulaire des composés de formules I et la sur les différentes lignées cellulaires tumorales a été comparée à celle du produit naturel, l'ascididémine (CRL 8274). […]

In the next series the test system is souris B6D2F1/Jico. As to the kind of experiment: Determination of the maximum tolerated dose (DMT). It is filed as in vivo. To be noted: B6D2F1/Jico mice, single intraperitoneal administration, doses 2,5 to 160 mg/kg, survival over 14 days. The procedure:
L'évaluation de la dose maximale tolérée a été réalisée chez des souris B6D2F1/Jico âgées de 4 à 6 semaines. Les composés ont été administrés par voie intrapéritonéale à des doses croissantes s'échelonnant de 2,5 à 160 mg/kg. La valeur de la DMT (exprimée en mg/kg) est déterminée à partir de l'observation du taux de survie des animaux sur une période de 14 jours après une administration unique du produit considéré. L'évolution pondérale des animaux est également suivie pendant cette période. Lorsque la valeur de la DMT est supérieure à 160 mg/kg, la valeur de la DMT est assimilée à 160 mg/kg par défaut.

A further series concerns T24. Briefly: MTT colorimetric cytotoxicity test, T24. To be noted: read-out: Concentrations inhibitrices (M) encadrant la valeur de la concentration inhibitrice 50 %. It is filed as cell-based, humaines.
Text: as §1, §2
(§3) Les 12 lignées cellulaires cancéreuses humaines utilisées ont été obtenues auprès de l'American Type Culture Collection (ATCC, Rockville, MD, USA). […]
In general terms: Tetrazolium assays rely on reduction of a dye to a coloured formazan, in cell work by metabolically active cells.

Another series deals with J82. As to the kind of experiment: MTT colorimetric cytotoxicity test, J82. It is filed as cell-based, humaines. To be noted: J82, 72 h incubation, read-out: Concentrations inhibitrices (M) encadrant la valeur de la concentration inhibitrice 50 %.
Text: as §1, §2, §3

For the next series, the system named is SW1088. As to the kind of experiment: MTT colorimetric cytotoxicity test, SW1088. To be noted: SW1088, 72 h incubation, read-out: Concentrations inhibitrices (M) encadrant la valeur de la concentration inhibitrice 50 %. It is filed as cell-based, humaines.
Text: as §1, §2, §3
Au plan expérimental : 100 µl d'une suspension cellulaire contenant 20 000 à 50 000 (selon le type cellulaire utilisé) cellules/ml de milieu de culture sont ensemencés en plaques multi-puits de 96 puits à fond plat et sont mis à incuber à 37°C, sous atmosphère comprenant 5% de CO2 et 70% d'humidité. […] L'intensité de la coloration bleue résultant donc de la transformation du produit MTT jaune en formazan bleu par les cellules encore vivantes au terme de l'expérience est quantifiée par spectrophotométrie à l'aide d'un appareil de type DYNATECH IMMUNOASSAY SYSTEM aux longueurs d'onde de 570 nm et 630 nm correspondant respectivement aux longueurs d'ondes d'absorbance maximale du formazan et au bruit de fond. […]

A further series has as its system U-373MG. As to the kind of experiment: MTT colorimetric cytotoxicity test, U-373MG. It is filed as cell-based, humaines. The conditions noted are these: 72 h incubation, read-out: Concentrations inhibitrices (M) encadrant la valeur de la concentration inhibitrice 50 %.
Text: as §1, §2, §3

The test system of the next series is PC-3. Briefly: MTT colorimetric cytotoxicity test, PC-3. It is filed as cell-based, humaines. To be noted: Homo sapiens, PC-3, 72 h incubation, read-out: Concentrations inhibitrices (M) encadrant la valeur de la concentration inhibitrice 50 %.
Text: as §1, §2, §3

Another series has as its system LoVo. As to the kind of experiment: MTT colorimetric cytotoxicity test, LoVo. It is filed as cell-based, humaines. The conditions noted are these: Homo sapiens, 72 h incubation, read-out: Concentrations inhibitrices (M) encadrant la valeur de la concentration inhibitrice 50 %.
Text: as §1, §2, §3

Series [2] has as its system modèle cellulaire de leucémie. The conditions noted are these: leukaemia cell model, literature value; cited from earlier work.

Consider `O=C1c2nccc(Br)c2-c2nc3ccccc3c3ccnc1c23` [CRL 8248, 5-bromo-9H-quino[4,3,2-de] [1,10]phénantrolin-9-one], for which, in series [1], the IC50 was 80 nM. The “DMT” value with souris B6D2F1/Jico is recorded as more than 160 mg/kg.
The like results for “5-bis(2-chloroéthyl)amino-9H-quino[4,3,2de][1,10] phénanthrolin-9-one [CRL 8422]” were, in that order, 100 nM and more than 160 mg/kg.
With “5-chloro-9H-quino [4,3,2-de] [1,10] phénantrolin-9-one [CRL 8301]”, the IC50 in series [1] is 270 nM. Further, in the series with souris B6D2F1/Jico, the “DMT” value is listed as more than 160 mg/kg.
Consider `Cc1ccc2nc3c(c(C)c2c1)C(=O)c1ncccc1C3=O` [CRL8324, 9,11-diméthyl-1,6-diaza-naphtacène-5,12-dione], for which the IC50 is more than 1e-05 M in the series on T24 (T24, 72 h incubation); more than 1e-05 M with J82; more than 1e-05 M in the series on SW1088; more than 1e-05 M with U-373MG.
For the molecule `O=C1c2cccnc2-c2nccc3c2c1nc1ccc(NCc2ccccc2)cc13` [CRL 8416, Chlorhydratede la 5-(benzylamino)-9H-quino[4,3,2-de][1,10] phénanthrolin-9-one], in series [1], the IC50 was 80 nM. Further, the “DMT” value in the series with souris B6D2F1/Jico was more than 160 mg/kg.
The corresponding values for “Chlorhydrate de la 5-amino-9H-quino[4,3,2-de][1,10]phénanthrolin-9-one [CRL 8406]” are 60 nM and more than 160 mg/kg.
The like results for `COc1ccc2nc3c4c(nccc4c2c1)-c1ncccc1C3=O` [CRL 8297, 5-méthoxy-9H-quino[4,3,2-de][1,10]phénanthrolin-9-one] were, in that order, 90 nM and more than 160 mg/kg.
As to “5-(diméthylamino-2-éthyl)amino-9H-quino[4,3,2de][1,10] phénanthrolin-9-one [CRL 8419]”, the IC50 in [1] is 60 nM. Further, the “DMT” value in the series with souris B6D2F1/Jico came to 40 mg/kg.
The corresponding values for “9-H-quino[4,3,2-de][1,10]phénanthrolin-9-one [CRL 8274, reference compound]” are 100 nM and 20 mg/kg.
The like results for `COc1ccnc2c1C(=O)c1nc3ccc(Br)cc3c3ccnc-2c13` [CRL 8389, 5-bromo-10-méthoxy-9H-quino[4,3,2-de][1,10]phénanthrolin-9-one] were, in that order, 420 nM and more than 160 mg/kg.
Regarding `Cc1ccc2nc3c4c(nccc4c2c1)-c1ncccc1C3=O` [CRL 8323, 5-méthyl-9H-quino [4,3,2-de][1,10] phénanthrolin-9-one], the IC50 in [1] is 60 nM. The “DMT” value in the series on souris B6D2F1/Jico is reported as 20 mg/kg.
For the molecule `CC(=O)c1ccc(Br)cc1NC1=CC(=O)c2ncccc2C1=O` [CRL8268, 6-(2-acétyl-5-bromo-phénylamino)-quinoline-5,8 dione], in the series on SW1088 (Homo sapiens), the IC50 is more than 1e-05 M.
Consider `O=C1c2cccnc2-c2nccc3c2c1nc1ccc(NCc2ccccc2)cc13` [CRL 8241, 5-(benzylamino)-9H-quino[4,3,2-de][1,10] phénanthrolin-9-one], for which, in series [1], the IC50 is 140 nM. Also, the “DMT” value in the series with souris B6D2F1/Jico is listed as more than 160 mg/kg.
On to `CC(=O)c1cc(C)ccc1NC1=CC(=O)c2ncccc2C1=O` [CRL8322, 6-(2-acétyl-4-méthyl-phénylamino)-quinoline-5,8-dione], for which the IC50 in the series on T24 (Homo sapiens, T-24, T24, 72 h incubation) was more than 1e-05 M; with J82 (Homo sapiens), more than 1e-05 M; in the series with PC-3, more than 1e-05 M; with SW1088 (Homo sapiens), more than 1e-05 M; with LoVo, more than 1e-05 M.
As to “2-bromoleptoclinidone [CRL 8269, reference compound]”, the IC50 in series [1] is 120 nM. Also, the “DE 50” value in series [2] was 0.4 µg/mL. Also, in the series on souris B6D2F1/Jico, the “DMT” value amounted to 40 mg/kg.
“Chlorhydrate de la 5-(diméthylamino-2-éthyl)amino-9H-quino[4,3,2de][1,10] phénanthrolin-9-one [CRL 8418]”: in [1], the IC50 is 110 nM. For the same molecule, the “DMT” value in the series with souris B6D2F1/Jico amounted to 40 mg/kg.
Consider `Nc1ccnc2c1-c1nc3ccccc3c3ccnc(c13)C2=O` [CRL 8347, 5-amino-9H-quino[4,3,2-de][1,10]phénanthtolin-9-one], for which the IC50 in [1] is 21 nM. Also, in the series on souris B6D2F1/Jico, the “DMT” value was more than 160 mg/kg.
The like results for “5-(2-chloroéthyl)amino-9H-quino[4,3,2de][1,10] phénanthrolin-9-one [CRL 8423]” were, in that order, 7 nM and more than 160 mg/kg.
In the case of `CN(C)c1ccc2nc3c4c(nccc4c2c1)-c1ncccc1C3=O` [CRL 8325, 5-(diméthylamino)-9H-quino[4,3,2-de][1,10]phénanthrolin-9-one], the IC50 in [1] was 37 nM. For the same molecule, in the series with souris B6D2F1/Jico, the “DMT” value is recorded as more than 160 mg/kg.
The like results for `CN(C)c1ccc2nc3c4c(nccc4c2c1)-c1ncccc1C3=O` [CRL 8407, Chlorhydratede la 5-(diméthylamino)-9H-quino[4,3,2-de][1,10] phénanthrolin-9-one] were, in that order, 22 nM and more than 160 mg/kg.
